Measured values published in patent US6858591B2, “Antibiotic AA 896 analogs” (Wyeth Holdings Corporation, priority 2001, dated 2005).
Converted amounts (≈) assume the structure as drawn. Where two headings read alike, the source gives them in different places.

Columns and labels:
Assay in all cases: In vitro MIC, broth dilution
Assay type in all cases: cell-based
E. coli GC 4560 = conditions: Escherichia coli, GC4560
E. coli GC 3226 = conditions: Escherichia coli, GC3226
E. faecalis GC 2242 = conditions: Enterococcus faecalis, GC2242
In short: (§1)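 Susceptibility testing used the NCCLS broth dilution method. Antibiotic spanned 64-0.06 μg/ml against an inoculum of 5×10^5 CFU/ml in Mueller-Hinton II; after 18 hours at 35° C the lowest concentration without growth gave the MIC.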

CNS GC 4538 = test system: CNS GC 4538
In short: as §1

E. faecalis GC 4555 = conditions: Enterococcus faecalis, GC4555
In short: as §1

E. faecalis GC 842 = conditions: Enterococcus faecalis, GC842
In short: as §1

CNS GC 4537 = test system: CNS GC 4537
In short: as §1

S. aureus GC 4536 = conditions: Staphylococcus aureus, GC4536
In short: as §1

S. aureus GC 1131 = conditions: Staphylococcus aureus, GC1131
In short: as §1

CNS GC 4547 = test system: CNS GC 4547
In short: as §1

S. aureus GC 2216 = conditions: Staphylococcus aureus, GC2216
In short: as §1

P. aeruginosa GC 4532 = conditions: Pseudomonas aeruginosa, GC4532
S. marcescens GC 4077 = conditions: Serratia marcescens, GC4077
K. pneumoniae GC 4534 = conditions: Klebsiella pneumoniae, GC4534
P. aeruginosa GC 2214 = conditions: Pseudomonas aeruginosa, GC2214
E. cloacae GC 3783 = conditions: Enterobacter cloacae, GC3783
M. morganii GC 4531 = conditions: Morganella morganii, GC4531
C. albicans GC 3066 = conditions: Candida albicans, GC3066
E. coli GC 4559 = conditions: Escherichia coli, GC4559
E. coli GC 2203 = conditions: Escherichia coli, GC2203
[1] = E. faecalis GC 2242, read-out: MIC
[2] = E. faecalis GC 4555, read-out: MIC
[3] = E. faecalis GC 842, read-out: MIC
[4] = S. aureus GC 4536, read-out: MIC
[5] = S. aureus GC 1131, read-out: MIC
[6] = S. aureus GC 2216, read-out: MIC
[7] = P. aeruginosa GC 4532, read-out: MIC
[8] = S. marcescens GC 4077, read-out: MIC
[9] = K. pneumoniae GC 4534, read-out: MIC
[10] = P. aeruginosa GC 2214, read-out: MIC
[11] = E. cloacae GC 3783, read-out: MIC
[12] = M. morganii GC 4531, read-out: MIC
[13] = C. albicans GC 3066, read-out: MIC

Row | SMILES | MIC (E. coli GC 4560; E. coli GC 4560, read-out: MIC) | MIC (E. coli GC 3226; E. coli GC 3226, read-out: MIC) | MIC (E. faecalis GC 2242; [1]) | MIC (CNS GC 4538; CNS GC 4538, read-out: MIC) | MIC (E. faecalis GC 4555; [2]) | MIC (E. faecalis GC 842; [3]) | MIC (CNS GC 4537; CNS GC 4537, read-out: MIC) | MIC (S. aureus GC 4536; [4]) | MIC (S. aureus GC 1131; [5]) | MIC (CNS GC 4547; CNS GC 4547, read-out: MIC) | MIC (S. aureus GC 2216; [6]) | MIC (P. aeruginosa GC 4532; [7]) | MIC (S. marcescens GC 4077; [8]) | MIC (K. pneumoniae GC 4534; [9]) | MIC (P. aeruginosa GC 2214; [10]) | MIC (E. cloacae GC 3783; [11]) | MIC (M. morganii GC 4531; [12]) | MIC (C. albicans GC 3066; [13]) | MIC (E. coli GC 4559; E. coli GC 4559, read-out: MIC) | MIC (E. coli GC 2203; E. coli GC 2203, read-out: MIC) | also measured
1 | COc1ccc(Cn2c(=O)ccn([C@@H]3OC([C@H](O)[C@H](NCCCNC(=O)[C@@H](N)CCCCN)C(=O)OC(C)(C)C)[C@@H](O[Si](C)(C)C(C)(C)C)[C@H]3O[Si](C)(C)C(C)(C)C)c2=O)cc1 (stereo partly drawn) [Example 19, tert-Butyl (2S,3R)-3-[(3R,4R,5R)-3,4-bis{[tert-butyl(dimethyl)silyl]oxy}-5-(3-(4-methoxybenzyl)-2,4-dioxo-3,4-dihydro-1(2H)-pyrimidinyl)tetrahydro-2-furanyl]-2-[(3-{[(2S)-2,6-diaminohexanoyl]amino}propyl)amino]-3-hydroxypropanoate] | 8 µg/mL (≈ 8.82 µM) | 128 µg/mL (≈ 141 µM) | 8 µg/mL (≈ 8.82 µM) | 8 µg/mL (≈ 8.82 µM) | 8 µg/mL (≈ 8.82 µM) | 8 µg/mL (≈ 8.82 µM) | 8 µg/mL (≈ 8.82 µM) | 8 µg/mL (≈ 8.82 µM) | 4 µg/mL (≈ 4.41 µM) | 16 µg/mL (≈ 17.6 µM) | 8 µg/mL (≈ 8.82 µM) | 128 µg/mL (≈ 141 µM) | 128 µg/mL (≈ 141 µM) | > 128 µg/mL | 128 µg/mL (≈ 141 µM) | > 128 µg/mL | 128 µg/mL (≈ 141 µM) | > 128 µg/mL | > 128 µg/mL | 128 µg/mL (≈ 141 µM) | 
2 | COc1ccc(Cn2c(=O)ccn([C@@H]3OC([C@H](O)[C@H](NCCCNC(=O)[C@H](CCC(=O)OC(C)(C)C)NC(=O)OCc4ccccc4)C(=O)OC(C)(C)C)[C@@H](O[Si](C)(C)C(C)(C)C)[C@H]3O[Si](C)(C)C(C)(C)C)c2=O)cc1 (stereo partly drawn) [Example 20, tert-Butyl (5S,12S)-12-[(R)-[(3R,4R,5R)-3,4-bis{[tert-butyl(dimethyl)silyl]oxy}-5-(3-(4-methoxybenzyl)-2,4-dioxo-3,4-dihydro-1(2H)-pyrimidinyl)tetrahydro-2-furanyl](hydroxy)methyl]-5-[3-(tert-butoxy)-3-oxopropyl]-3,6-dioxo-1-phenyl-2-oxa-4,7,11-triazatridecan-13-oate] |  |  |  |  |  |  |  |  |  |  |  |  |  |  |  |  |  |  |  |  | MIC (E. coli GC 4560): > 128 µg/mL; MIC (E. coli GC 3226): > 128 µg/mL; MIC (E. faecalis GC 2242): > 128 µg/mL; MIC (CNS GC 4538): > 128 µg/mL; MIC (E. faecalis GC 4555): > 128 µg/mL; MIC (E. faecalis GC 842): > 128 µg/mL; MIC (CNS GC 4537): > 128 µg/mL; MIC (S. aureus GC 4536): > 128 µg/mL; MIC (S. aureus GC 1131): > 128 µg/mL; MIC (CNS GC 4547): > 128 µg/mL; MIC (S. aureus GC 2216): > 128 µg/mL; MIC (P. aeruginosa GC 4532): 128 µg/mL (≈ 117 µM); MIC (S. marcescens GC 4077): > 128 µg/mL; MIC (K. pneumoniae GC 4534): > 128 µg/mL; MIC (P. aeruginosa GC 2214): 128 µg/mL (≈ 117 µM); MIC (E. cloacae GC 3783): > 128 µg/mL; MIC (M. morganii GC 4531): > 128 µg/mL; MIC (C. albicans GC 3066): 128 µg/mL (≈ 117 µM); MIC (E. coli GC 4559): > 128 µg/mL; MIC (E. coli GC 2203): > 128 µg/mL
3 | COc1ccc(Cn2c(=O)ccn([C@@H]3OC([C@H](O)[C@H](NCCCNC(=O)[C@@H](N)CCC(=O)OC(C)(C)C)C(=O)OC(C)(C)C)[C@@H](O[Si](C)(C)C(C)(C)C)[C@H]3O[Si](C)(C)C(C)(C)C)c2=O)cc1 (stereo partly drawn) [Example 21, tert-Butyl (4S)-4-amino-5-[(3-{[(1S,2R)-2-[(3R,4R,5R)-3,4-bis{[tert-butyl(dimethyl)silyl]oxy}-5-(3-(4-methoxybenzyl)-2,4-dioxo-3,4-dihydro-1(2H)-pyrimidinyl)tetrahydro-2-furanyl]-1-(tert-butoxycarbonyl)-2-hydroxyethyl]amino}propyl)amino]-5-oxopentanoate] | > 128 µg/mL | > 128 µg/mL | > 128 µg/mL | > 128 µg/mL | > 128 µg/mL | > 128 µg/mL | > 128 µg/mL | > 128 µg/mL | > 128 µg/mL | > 128 µg/mL | > 128 µg/mL | > 128 µg/mL | > 128 µg/mL | > 128 µg/mL | > 128 µg/mL | > 128 µg/mL | > 128 µg/mL | > 128 µg/mL | > 128 µg/mL | > 128 µg/mL | 
4 | COc1ccc(Cn2c(=O)ccn([C@@H]3OC([C@H](O)[C@H](NC(=O)CCCCCCCCCCNC(=O)OCC4c5ccccc5-c5ccccc54)C(=O)OC(C)(C)C)[C@@H](O[Si](C)(C)C(C)(C)C)[C@H]3O[Si](C)(C)C(C)(C)C)c2=O)cc1 (stereo partly drawn) [Example 22, tert-Butyl (2S,3R)-3-[(3R,4R,5R)-3,4-bis{[tert-butyl(dimethyl)silyl]oxy}-5-(3-(4-methoxybenzyl)-2,4-dioxo-3,4-dihydro-1(2H)-pyrimidinyl)tetrahydro-2-furanyl]-2-[(11-{[(9H-fluoren-9-ylmethoxy)carbonyl]amino}undecanoyl)-amino]-3-hydroxypropanoate] |  |  |  |  |  |  |  |  |  |  |  |  |  |  |  |  |  |  |  |  | MIC (E. coli GC 4560): > 128 µg/mL; MIC (E. coli GC 3226): > 128 µg/mL; MIC (E. faecalis GC 2242): > 128 µg/mL; MIC (CNS GC 4538): > 128 µg/mL; MIC (E. faecalis GC 4555): > 128 µg/mL; MIC (E. faecalis GC 842): > 128 µg/mL; MIC (CNS GC 4537): > 128 µg/mL; MIC (S. aureus GC 4536): > 128 µg/mL; MIC (S. aureus GC 1131): > 128 µg/mL; MIC (CNS GC 4547): > 128 µg/mL; MIC (S. aureus GC 2216): > 128 µg/mL; MIC (P. aeruginosa GC 4532): > 128 µg/mL; MIC (S. marcescens GC 4077): > 128 µg/mL; MIC (K. pneumoniae GC 4534): > 128 µg/mL; MIC (P. aeruginosa GC 2214): > 128 µg/mL; MIC (E. cloacae GC 3783): > 128 µg/mL; MIC (M. morganii GC 4531): > 128 µg/mL; MIC (C. albicans GC 3066): > 128 µg/mL; MIC (E. coli GC 4559): > 128 µg/mL; MIC (E. coli GC 2203): > 128 µg/mL
5 | COc1ccc(Cn2c(=O)ccn([C@@H]3OC([C@H](O)[C@H](NC(=O)CCCCCCCCCCN)C(=O)OC(C)(C)C)[C@@H](O[Si](C)(C)C(C)(C)C)[C@H]3O[Si](C)(C)C(C)(C)C)c2=O)cc1 (stereo partly drawn) [Example 23, tert-Butyl (2S,3R)-2-[(11-aminoundecanoyl)amino]-3-[(3R,4R,5R)-3,4-bis{[tert-butyl(dimethyl)silyl]oxy}-5-(3-(4-methoxybenzyl)-2,4-dioxo-3,4-dihydro-1(2H)-pyrimidinyl)tetrahydro-2-furanyl]-3-hydroxypropanoate] | 128 µg/mL (≈ 141 µM) | > 128 µg/mL | 128 µg/mL (≈ 141 µM) | 128 µg/mL (≈ 141 µM) | 128 µg/mL (≈ 141 µM) | 128 µg/mL (≈ 141 µM) | 128 µg/mL (≈ 141 µM) | 128 µg/mL (≈ 141 µM) | > 128 µg/mL | > 128 µg/mL | 128 µg/mL (≈ 141 µM) | 128 µg/mL (≈ 141 µM) | 128 µg/mL (≈ 141 µM) | > 128 µg/mL | 128 µg/mL (≈ 141 µM) | > 128 µg/mL | 128 µg/mL (≈ 141 µM) | 128 µg/mL (≈ 141 µM) | > 128 µg/mL | > 128 µg/mL | 
